Experiment: CBD solubility in lipid excipients (about 0.345 g CBD exposed to 10 ml lipid)
Format: physicochemical
Details: approx. 0.345 g CBD in 10 ml
Experimental: Approximately 0.345 g of CBD was exposed to 10 ml of the listed lipid and solubility was assessed.

In the case of C=C(C)[C@@H]1CCC(C)=C[C@H]1c1c(O)cc(CCCCC)cc1O [CBD, cannabidiol], the SOLUBILITY (solvent 1: Apricot Kernel Oil PEG-6 Esters) is reported as “Medium CBD Solubility”, the SOLUBILITY (solvent 2: Corn Oil PEG-6 Ester) is reported as “Medium CBD Solubility” and the SOLUBILITY (solvent 3: Ethoxydiglycol) is reported as “Stability Problematic”. The SOLUBILITY (solvent 4: Glycerine soja (Soyean) oil (and) Glyceryl Distearate (and) Polyglyceryl-3 Dioleate) was “Medium CBD Solubility”, the SOLUBILITY (solvent 5: Glyceryl Linoleate) was “Bad CBD Solubility” and the SOLUBILITY (solvent 6: Glyceryl Oleate) was “Bad CBD Solubility”. For the same compound, the SOLUBILITY (solvent 7: PEG-8 Caprylic/Capric Glycerides) was “Stability Problematic”, the SOLUBILITY (solvent 8: Polyglyceryl-3-diolate) was “Bad CBD Solubility” and the SOLUBILITY (solvent 9: Propylene Glycol Caprate) was “Good CBD Solubility”. The SOLUBILITY (solvent 10: Propylene Glycol Laurate) was “Medium CBD Solubility”, the SOLUBILITY (solvent 13: PEG-8) was “Medium CBD Solubility” and the SOLUBILITY (solvent 18: Caprylic/Capric Triglyceride) was “Medium CBD Solubility”. The SOLUBILITY (solvent 19: PEG-8 Carylic/Capric Glycerides) was “Good CBD Solubility”, the SOLUBILITY (solvent 20: Glyceryl Caprylate/Caprate) was “Medium CBD Solubility” and the SOLUBILITY (solvent 21: Propylene Glycol Monocaprylate) was “Good CBD Solubility”. The SOLUBILITY (solvent 22: Olea Europaea (Olive) Oil) was “Bad CBD Solubility” and the SOLUBILITY (solvent 23: Glycine Soja (Soybean) Oil) was “Medium CBD Solubility”.
